# Where two headings read alike, the source gives them in different places.
# System: T1, mouse Abcg2
# T1 construct: expressed in transfected cells; host or cells: MDCK-II cells stably transduced with mAbcg2 cDNA (made in the authors' institute)
# Assay: Transepithelial transport, MDCK-II cells transduced with mAbcg2
# Format: in vitro ADME
# Details: MDCK-II mAbcg2, 5 µM, read-out: efflux transport ratio r
# Text: Polarized Madin-Darby Canine Kidney (MDCK-II) cells (ECACC 00062107) stably transduced with either human (h) ABCB1, hABCG2 or mouse (m) Abcg2 cDNA were generated in our institute between 1995–2005. The proper identity and functionality, such as highly characteristic growth and drug transporter properties, including inhibitor sensitivity, were regularly checked in these epithelial cells. Mycoplasma routinely tested negative in these cells. The passage number was 10–15 when used in the transport experiments.
# Transepithelial transport experiments were performed as previously described with 12-well plates (Transwell 3414, Corning Inc., Kennebunk, ME, USA) containing microporous polycarbonate membrane filters (3.0 µm pore size, 12 mm diameter). […]
# After pre-incubation with 5 µM zosuquidar (ABCB1 inhibitor) and/or 5 µM Ko143 (ABCG2/Abcg2 inhibitor) in both compartments (when appropriate) for 1 h, the transport phase was initiated (t = 0) by replacing the medium in apical and basolateral compartments with fresh DMEM with 10% FBS and the appropriate inhibitor(s), and repotrectinib at 5 µM in the donor compartment. […] The active transport ratio r, calculated by dividing the amount of apically directed drug transport by basolaterally directed drug translocation after 8 h, was used to assess active transport of repotrectinib.
smiles,measurement,setting,value
C[C@H]1CNC(=O)c2cnn3ccc(nc23)N[C@H](C)c2cc(F)ccc2O1 [repotrectinib],"efflux ratio at 8 h, 5 µM","pH 7.4, with zosuquidar 5 µM + Ko143 5 µM, + zosuquidar 5 µM + Ko143 5 µM",1.1
same,"efflux ratio at 8 h, 5 µM","pH 7.4, with zosuquidar 5 µM, + zosuquidar 5 µM",40
